Measured values reported in publication PMC7464159, “Triple Negative Breast Cancer and Breast Epithelial Cells Differentially Reprogram Glucose and Lipid Metabolism upon Treatment with Triterpenic Acids” (Biomolecules, 2020).
Like-named read-outs stand apart in the source and are kept apart here.

What was measured:
[1] = test system: MCF-10A cells; assay: MTT cell viability assay; format: cell-based; details: Homo sapiens, mean ± SD, read-out: IC50 cell viability inhibition
Procedure: (§1) Cells were cultured in 96-well plates at 2 × 10^5 cells/mL (100 µL per well) and treated the following day with either BA or UA (0.5–50 µM), for 24 h, 48 h and 72 h. Vehicle solvent control cells received DMSO (0.25% v/v). Cell viability was estimated by the 3-(4,5-dimethylthiazol-2-yl)-2,5-diphenyltetrazolium bromide (MTT) assay as previously described by. After treatment incubation, 20 μL of MTT stock solution was added to each well (final concentration 0.5 mg/mL), and plates were incubated at 37 °C, for 4 h. Then, the medium was removed, and the formed formazan crystals were dissolved using a DMSO/ethanol (1:1) solution. Finally, absorbance of the formed product was measured at 570 nm using a microplate reader (MultiSkan FC, Thermo Fisher Scientific, Rochester, NY, USA). The IC50, defined as the concentration necessary to cause 50% inhibition of cell viability, was calculated using GraphPad Prism 5.0 (GraphPad Prism Software Inc., San Diego, CA, USA), by plotting the percentage of cell viability as a function of sample concentration logarithm. Three independent experiments were performed for each treatment.

[2] = test system: MDA-MB-231 cells; assay: MTT cell viability assay; format: cell-based; details: Homo sapiens, mean ± SD, read-out: IC50 cell viability inhibition
Procedure: as §1

[3] = test system: MDA-MB-231 cells; assay: Cell cycle analysis by flow cytometry; format: cell-based, human; details: 48 h
Procedure: MDA-MB-231 and MCF-10A cells were seeded in six-well plates at a density of 4 × 10^5 cells/mL (2 mL per well) and cultured for 24 h at 37 °C. […] Vehicle solvent control cells received DMSO (0.10% v/v). Then, cells were trypsinized, collected, washed with phosphate buffered saline (PBS) and fixed with 85% cold ethanol. At the time of analysis, cells were centrifuged at 300× g for 5 min at 4 °C and resuspended in PBS, before being treated with RNase (50 µg/mL) and propidium iodide staining solution (50 µg/mL) and incubated, in the dark, for at least 20 min at room temperature. Propidium iodide-stained cells were analyzed on a Coulter EPICS XL (Beckman Coulter, Hialeah, FL, USA) flow cytometer. The results were acquired using the SYSTEM II software (version 3.0 Beckman-Coulter ®, Brea, CA, USA). Four replicates were performed for each treatment, and for each sample at least 5000 nuclei were acquired. Analysis of cell cycle distribution was performed using the FlowJo software (Tree Star, Ashland, USA).

[4] = test system: MCF-10A cells; assay: 1H NMR analysis of culture medium supernatants (exometabolome); format: cell-based, human
Procedure: (§2) MDA-MB-231 and MCF-10A cells were seeded in 10-cm-diameter Petri dishes at a density of 6 × 10^5 cells/mL (10 mL per dish) and cultured for 24 h at 37 °C. Cells were then incubated for 48 h with BA (5 and 15 µM) or UA (10 and 20 µM). Vehicle solvent control cells received DMSO (0.10% v/v). Samples were collected immediately after 48 h incubation or, to assess cellular recovery, medium was replaced with fresh growth medium (without TAs), and cells were incubated for additional 24 h before collection (48 + 24 h samples). Four independent assays were performed.
(§3) After incubation, culture medium was collected and centrifuged (1000× g, 5 min) and the supernatant stored at −80 °C until analysis. Culture medium without cells was placed under the same conditions and collected. Cell extraction was performed as described by Carrola et al.. Briefly, cells were washed four times with PBS and extracted with a mixture of methanol:chloroform:water (1:1:0.7). The resulting polar and organic phases were collected and then dried under vacuum or under a stream of nitrogen gas, respectively. All samples were stored at −80 °C and, at the time of analysis, dried polar extracts were reconstituted in 600 µL of deuterated phosphate buffer (100 mM, pH 7.4) containing 0.1 mM TSP-d4, while organic extracts were reconstituted in deuterated chloroform containing 0.03% TMS. Regarding medium samples, 540 μL were mixed with 60 μL of D2O containing 0.25% TSP-d4. Prior to analysis, 550 μL of each sample were transferred to 5 mm NMR tubes.
(§4) ^1H NMR spectra of all samples were acquired on a Bruker Avance III HD 500 NMR spectrometer (University of Aveiro, Portuguese NMR Network) operating at 500.13 MHz for ^1H observation equipped with a 5 mm TXI probe. Standard 1D spectra (Bruker pulse programs ‘noesypr1d’, with water suppression, for medium samples and aqueous extracts, and ‘zg’ for organic extracts) were recorded with a 7002.8 Hz spectral width, 32 k data points, a 2 s relaxation delay and 512 scans. Spectral processing comprised exponential multiplication with 0.3 Hz line broadening, zero filling to 64 k data points, manual phasing, baseline correction, and chemical shift calibration to the TSP or TMS signal at 0 ppm. 2D ^1H-^1H total correlation (TOCSY) spectra, ^1H-^13C heteronuclear single quantum correlation (HSQC) spectra and J-resolved spectra were also registered for selected samples to assist spectral assignment. Metabolites were identified with the support of 2D spectra and the spectral reference databases BBIOREFCODE-2-0-0 (Bruker Biospin, Rheinstetten, Germany) and HMDB [28]. Selected signals were then integrated using the AmixViewer software […] (version 3.9.14, Bruker BioSpin, Rheinstetten, Germany) and normalized by the total spectral area. The magnitude of each metabolite change was assessed through the percentage of variation (and its respective error) in exposed samples relatively to controls, and through the effect size (ES) adjusted for small sample numbers (and respective standard error). Metabolite variations with absolute ES greater than 0.8 were expressed in a heatmap, colored as a function of the percentage of variation, employing the R statistical software.

[5] = test system: MDA-MB-231 cells; assay: as above; format: cell-based, human
Procedure: as §2, §3, §4

[6] = test system: MCF-10A cells; assay: 1H NMR analysis of organic cell extracts (lipids); format: cell-based, human; details: for levels of triglycerides: vs control cells
Procedure: as §2, §3, §4

[7] = test system: MDA-MB-231 cells; assay: 1H NMR analysis of organic cell extracts (lipids); format: cell-based, human; details: 48 h; for levels of neutral lipids (cholesteryl esters and triglycerides): vs control; for plasmalogen lipids: high exposure concentration
Procedure: as §2, §3, §4

[8] = test system: MDA-MB-231 cells; set-up: method as in PMID 28213701; details: MDA-MB-231, 24 h incubation; read-out: IC50 reported in the literature; cited from earlier work
[9] = test system: MDA-MB-231 cells; set-up: method as in PMID 28213701; details: cited from earlier work

| IC50 ([2]; MDA-MB-231, 24 h) | IC50 ([2]; MDA-MB-231, 48 h) | IC50 ([2]; MDA-MB-231, 72 h) | SMILES | IC50 ([1]; 24 h) | IC50 ([1]; 48 h) | IC50 ([1]; 72 h) | consumption of glucose and pyruvate ([4]; 48 h) | excretion of lactate ([4]; 48 h) | levels of triglycerides [6] | levels of neutral lipids (cholesteryl esters and triglycerides) [7] | plasmalogen lipids [7] | IC50 [8] | further results |
| --- | --- | --- | --- | --- | --- | --- | --- | --- | --- | --- | --- | --- | --- |
| 24.5 ± 4.61 µM | 17.2 ± 0.86 µM | 17.7 ± 2.81 µM | C[C@H]1[C@H](C)CC[C@]2(C(=O)O)CC[C@]3(C)C(=CC[C@@H]4[C@@]5(C)CC[C@H](O)C(C)(C)[C@@H]5CC[C@]43C)[C@H]12 [UA, ursolic acid] | 37.9 ± 8.93 µM | 18.7 ± 3.27 µM | 21.5 ± 4.55 µM | increasing the consumption | increasing | increases | decreased levels | decreased levels | 22.9 µM | effect on cell cycle phases ([3]; 20 µM, vs untreated): no statistical differences; consumption of several amino acids ([4]; UA, 48 h): decreased; consumption of glucose, leucine and choline ([5]; UA, 48 + 24 h): decreased consumption; excretion of lactate, 2-oxoisovalerate, citrate, alanine and glutamate ([5]; UA, 48 + 24 h): decreased excretion; changes in the exometabolome ([5]; UA, 48 h): no significant changes; expression of glycolytic enzymes (HK2 and PKM2) and ATP content ([9]; UA 5–20 µM): decreased |
| 31.3 ± 5.94 µM | 13.2 ± 2.3 µM | 8.39 ± 0.98 µM | C=C(C)[C@@H]1CC[C@]2(C(=O)O)CC[C@]3(C)[C@H](CC[C@@H]4[C@@]5(C)CC[C@H](O)C(C)(C)[C@@H]5CC[C@]43C)[C@@H]12 [BA, betulinic acid] | 22.4 ± 6.49 µM | 11 ± 1.83 µM | 2.38 ± 1.36 µM | consumed more | excreting more | increased levels | decreased significantly | decreased | 30.6 µM | cell population at the S phase ([3]; 15 µM, vs non-exposed control): decreased cell population; cells at the G2 phase ([3]; 15 µM, vs non-exposed control): significant accumulation; consumption of glucose, pyruvate and acetate ([4]; BA, 48 + 24 h): decreased; formate excretion ([4]; BA, 48 + 24 h): increased; consumption of several amino acids (BCAA, glutamine, phenylalanine, tyrosine) ([4]; BA, 48 h): significantly reduced; excretion of alanine and fumarate ([4]; BA, 48 h): decreased excretion; consumption of leucine ([5]; BA 5µM, 48h): decreased significantly; glucose consumption ([5]; BA 15µM, 48h): significant increases; lactate excretion ([5]; BA 15 µM, 48 h (already noticed at 5 µM)): significant increases; consumption of leucine and pyruvate ([5]; BA, 48 + 24 h): consumed less; excretion of 2-oxoisovalerate, citrate and alanine ([5]; BA, 48 + 24 h): excreted less; glucose consumption and lactate excretion vs untreated controls ([5]; BA, 48 + 24 h): no longer differences; levels of glycerophospholipids (including plasmalogen) ([6]; BA): decreased levels; relative amount of free cholesterol ([6]; BA): increased; total glycerophospholipids and free cholesterol ([7]; BA): increased; lactate levels and expression of glycolytic enzymes ([9]; BA up to 20 µM, 24 h): did not alter |
